According to patent US5773447A, “Compounds for treating disorders of lipid metabolism and their preparation” (Hoechst Aktiengesellschaft, priority 1996, dated 1998):
Structures can show the parent of a compound that is named as a salt.

Key:
[1] = Metabolic stability: dealkylation to compound A in in vitro incubations (HPLC); type: in vitro ADME; settings: human, liver 9000 g fraction, 37° C., R1-dealkylated metabolite, read-out: relative content of compound A; for metabolised at 0.5 h: incubation time 0.5 h; for metabolised at 1 h: incubation time 1 h; for metabolised at 2 h: incubation time 2 h; for metabolised at 3 h: incubation time 3 h
Excerpt: It is known that compounds of formula I where R^1 =alkyl are degraded in the metabolism to compounds of the formula I where R^1 =H (in the following called compound A). Accordingly, the instant inventors sought to investigate the metabolic fate of our inventive compounds. The following experiments, which can be carried out using intact human hepatocytes or liver extracts, are used to investigate the dealkylation tendency of the compounds of the formula I according to the invention in comparison to 4-amino-2-(4,4-dimethyl-2-oxoimidazolidin-1-yl)pyrimidine-5-N-(ethyl)-N-(3-trifluoromethyl-phenyl)carboxamide hydrochloride (compound of Example 2 from EP 0 557 879--in the following called compound B).
Frozen samples of pieces of human liver stored at -78° C. were thawed by introducing them into a 1.1% strength potassium chloride solution at a temperature of 4° C. […] After thawing, the pieces of liver were prepared by standard processes [A. Y. H. Lu, W. Levin; Biochem. Biophys. Res. Comm. 46, 1339-1344 (1972), P. G. Gervasi et al.; Xenobiotica 12/8, 517 (1982)]. The temperature was kept between 0° and 4° C. during the preparation. The 9000 g fractions of ten human livers were mixed in order to exclude interindividual enzyme differences.
The test substances were dissolved in DMSO at a concentration of about 10 mg/ml. Aliquot parts of this solution were added under sterile conditions to the hepatocyte cultures or the 9000 g fractions. The incubations were carried out at 37° C. in an atmosphere having 5% CO2 and >90% atmospheric humidity. […] NADPH and Mg^2+ were added to the 9000 g fractions as cofactors [P. G. Gervasi et al.; Xenobiotica 12/8, 517 (1982)]. All samples were frozen immediately after incubation and stored at below -20° C. until analysis.
For each species and each time, all incubations with hepatocytes and 9000 g fractions were carried out without addition of a test substance. The samples obtained were used as controls in the chromatographic analysis.
For the quantitative determination of compound A, i.e. the R^1 -dealkylated metabolite, in the in vitro incubation mixtures, […] of each mixture was in each case diluted with […] of bovine serum. These samples were analyzed by the following test for the determination of compound B free base and metabolite compound A free base in serum:
Fifty microliters of the prepared solution of an internal standard (10 μg of a compound of the formula I where R^1 =CH3, R^2, R^3 =H and R^4 =CF3 /ml of methanol), 0.1 ml of sodium acetate buffer (0.4M, pH 5.5) and 5 ml of ethyl ether were added to 0.1 ml of serum. The mixture was shaken for 20 min. After centrifuging, 4 ml of the organic phase were transferred, 3 ml of n-hexane were added and the mixture was extracted with 0.5 ml of 1% strength (v/v) aqueous trifluoroacetic acid. The upper organic layer was aspirated off and discarded. The aqueous residue was evaporated at 40° C. for 30 min. in order to remove residues of the organic solvent. 100 μl of the remaining aqueous phase were injected into the HPLC apparatus. HPLC analysis was carried out on a C18 RP column (TosoHaas Semi-Micro TSK gel ODS 80 TS) using a mobile phase of 800 g of water, 270 g of acetonitrile and 1 ml of trifluoroacetic acid. The flow rate was 0.2 ml/min. The quantitative determination of the analytes was carried out by measuring the peak heights with the aid of a UV detector at γ=240 nm. The calibration range was between 50 and 0.05 μg/ml corresponding to 200 to 0.2 μg/ml in the undiluted in vitro sample. The detection limit was 0.05 μg/ml corresponding to 0.2 μg/ml in the undiluted in vitro sample.

[2] = test system: LDL receptor mRNA; test: Stimulation of LDL receptor mRNA expression in rat livers after administration (Northern blot); type: in vivo; settings: rat liver, 6 hours after administration, untreated control=100%
Excerpt: (§1) Using a surrogate system, the present inventors sought to confirm the pharmacological activity of the inventive compounds. Thus, utilizing the human hepatocytoma cell line HepG2, which is recognized on all sides as a model, it was observed that the LDL receptor mRNA levels are increased by the compounds of the formula I (Table I). Even in rat livers, within a few hours the LDL receptor mRNA levels are increased by the compounds of the formula I (Table II). The observed stimulation is in the range from 170 to 350% of the controls (control=100%). Accordingly, an effective amount of an inventive compound can include an amount sufficient to increase CDL receptor levels or reduce plasma lipid levels.
The preparation of the mRNA was carried out according to the method of Chomczynski, P. and Sacchi, N., Anal. Biochem. 162, 156-159 (1987). In organs (such as, for example, liver), the deep-frozen tissue was homogenized on dry ice beforehand in a mortar, and the mRNA was further enriched by means of Oligo dT according to standard methods (cf. Sambrook, J., Fritsch, E. F. and Maniatis, T., Molecular Cloning, second Edition, Cold Spring Harbor (1989); in this collection of methods, there are also descriptions of all further relevant molecular biology standard methods used here). Five to […] of the dissolved mRNA thus obtained were denatured according to standard methods and separated on 1% horizontal agarose gels. The mRNA was transferred to Hybond N membranes (Amersham) by means of capillary blot. The specific hybridization probe used was a partial LDL receptor cDNA clone and the internal standard a plasmid which contained a β-actin gene. Both plasmids were labeled by means of a random primer kit from Amersham up to a specific activity of 5×10^9 cpm/μg. Prehybridization, hybridization and washing of the filters were carried out by standard methods. The filters were then exposed at -70° C. on Cronex 4 films (Dupont) overnight up to 14 days in the presence of an intensifying screen, and the hybridization signals were quantified using a commercial laser densitometer by means of the film-blackening intensity. The quotient of the intensity of the LDL receptor band and of the actin band was then determined as an internal standard to correct yield variations.
Liver tissue was removed and shock-frozen in liquid nitrogen. The mRNA was then isolated as described, and the relative LDL receptor mRNA levels were determined by means of the Northern blot technique. The mRNA levels of untreated control animals were set at 100%, and the stimulation of the LDL receptor mRNA in percent of the control was calculated.

[3] = test system: LDL receptor mRNA; test: Stimulation of LDL receptor mRNA expression in HepG2 cells (Northern blot); type: cell-based; settings: Homo sapiens, 2 × 10^-6 M, 16 h incubation, 10% fetal calf serum, LDL receptor/β-actin quotient, control=100%
Excerpt: as §1
The preparation of the mRNA was carried out according to the method of Chomczynski, P. and Sacchi, N., Anal. Biochem. 162, 156-159 (1987). In organs (such as, for example, liver), the deep-frozen tissue was homogenized on dry ice beforehand in a mortar, and the mRNA was further enriched by means of Oligo dT according to standard methods (cf. Sambrook, J., Fritsch, E. F. and Maniatis, T., Molecular Cloning, second Edition, Cold Spring Harbor (1989); in this collection of methods, there are also descriptions of all further relevant molecular biology standard methods used here). […] The filters were then exposed at -70° C. on Cronex 4 films (Dupont) overnight up to 14 days in the presence of an intensifying screen, and the hybridization signals were quantified using a commercial laser densitometer by means of the film-blackening intensity. The quotient of the intensity of the LDL receptor band and of the actin band was then determined as an internal standard to correct yield variations.
Table I presents the stimulation of the LDL receptor mRNA expression in HepG2 cells by selected compounds of formula I in whole serum (final concentration of the compounds […]) after a 16 h incubation. […] The total mRNA was then prepared, and the relevant LDL receptor mRNA and β-actin mRNA levels were determined by means of the Northern blot technique. […]

| metabolised at 0.5 h [1] [%] | metabolised at 1 h [1] [%] | metabolised at 2 h [1] [%] | metabolised at 3 h [1] [%] | Structure (SMILES) | response vs control in vivo at 30 mg/kg [2] [%] | activity at 2 µM [3] [%] |
| --- | --- | --- | --- | --- | --- | --- |
| 4 | 8 | 10 | 12 | CCN(C(=O)c1cnc(N2CC(C)(C)NC2=O)nc1N)c1cccc(C(F)(F)F)c1 [Compound B, 4-amino-2-(4,4-dimethyl-2-oxoimidazolidin-1-yl)pyrimidine-5-N-(ethyl)-N-(3-trifluoromethyl-phenyl)carboxamide hydrochloride, reference compound] |  |  |
| < 2 | < 2 | 3 | 4 | CC1(C)CN(c2ncc(C(=O)N(CC(F)(F)F)c3cccc(C(F)(F)F)c3)c(N)n2)C(=O)N1 [Example 1, 4-Amino-2-(4,4-dimethylimidazolidin-2-on-1-yl) pyrimidine-5-N-(2,2,2-trifluoroethyl)-N-[(3-trifluoromethyl)phenyl]carboxamide hydrochloride] | 220 | 220 |
|  |  |  |  | CC1(C)CN(c2ncc(C(=O)N(CC(F)(F)C(F)(F)F)c3cccc(C(F)(F)F)c3)c(N)n2)C(=O)N1 [Example 3, 4-Amino-2-(4,4-dimethylimidazolidin-2-on-1-yl-pyrimidine-5-N-(2,2,3,3,3-pentafluoropropyl)-N-[(3trifluoromethyl)phenyl]carboxamide hydrochloride] | 200 |  |
|  |  |  |  | CC1(C)CN(c2ncc(C(=O)N(CC(F)(F)F)c3ccc(F)c(C(F)(F)F)c3)c(N)n2)C(=O)N1 [Example 6, 4-Amino-2-(4,4-dimethylimidazolidin-2-on-1-yl)pyrimidine-5-N-(2,2,2-trifluoroethyl)-N-[(4-fluoro-3-trifluoromethyl)phenyl]carboxamide] | 216 |  |
|  |  |  |  | CC1(C)CN(c2ncc(C(=O)N(CC(F)(F)F)c3ccc(Cl)c(C(F)(F)F)c3)c(N)n2)C(=O)N1 [Example 8, 4-Amino-2-(4,4-dimethylimidazolidin-2-on-1-yl)pyrimidine-5-N-[(4-chloro-3-trifluoromethyl)phenyl]-N-(2,2,2-trifluoroethyl)carboxamide hydrochloride] | 182 |  |
|  |  |  |  | CC1(C)CN(c2ncc(C(=O)N(CC(F)(F)C(F)(F)F)c3ccc(Cl)c(C(F)(F)F)c3)c(N)n2)C(=O)N1 [Example 9, 4-Amino-2-(4,4-dimethylimidazolidin-2-on-1-yl)pyrimidine-5-N-[(4-chloro-3-trifluoromethyl)phenyl]-N-(2,2,3,3,3-pentafluoropropyl)carboxamide] | 193 |  |
|  |  |  |  | CC1(C)CN(c2ncc(C(=O)N(CC(F)(F)C(F)(F)C(F)(F)F)c3ccc(Cl)c(C(F)(F)F)c3)c(N)n2)C(=O)N1 [Example 10, 4-Amino-2-(4,4-dimethylimidazolidin-2-on-1-yl)pyrimidine-5-N-[(4-chloro-3-trifluoromethyl)phenyl]-N-(2,2,3,3,4,4,4-heptafluorobutyl)carboxamide] |  | 206 |
|  |  |  |  | CC1(C)CN(c2ncc(C(=O)N(CC(F)(F)C(F)(F)F)c3cc(C(F)(F)F)ccc3Cl)c(N)n2)C(=O)N1 [Example 11, 4-Amino-2-(4,4-dimethylimidazolidin-2-on-1-yl)pyrimidine-5-N-[(6-chloro-3-trifluoromethyl)phenyl]-N-(2,2,3,3,3-pentafluoropropyl)carboxamide hydrochloride] |  | 290 |
| 2 | 4 | 6 | 9 | CC1(C)CN(c2ncc(C(=O)N(CCF)c3cccc(C(F)(F)F)c3)c(N)n2)C(=O)N1 [Example 12, 4-Amino-2-(4,4-dimethylimidazolidin-2-on-1-yl)pyrimidine-5-[N-(3-trifluoromethylphenyl)-N-(2-fluoroethyl)]carboxamide] |  |  |
|  |  |  |  | CC1(C)CN(c2ncc(C(=O)N(CC(F)(F)C(F)(F)C(F)(F)F)c3cc(C(F)(F)F)ccc3Cl)c(N)n2)C(=O)N1 [Example 14, 4-Amino-2-(4,4-dimethylimidazolidin-2-on-1-yl)pyrimidine-5-[N-(3-trifluoromethyl-6-chlorophenyl)-N-(2,2,3,3,4,4,4-heptafluorobutyl)]-carboxamide] | 194 |  |
|  |  |  |  | CC1(C)CN(c2ncc(C(=O)N(CC(F)(F)C(F)(F)C(F)(F)F)c3ccc(F)c(C(F)(F)F)c3)c(N)n2)C(=O)N1 [Example 17, 4-Amino-2-(4,4-dimethylimidazolidin-2-on-1-yl)-5-pyrimidine-5-[N-(3-trifluoromethyl-4-fluorophenyl)-N-(2,2,3,3,4,4,4-heptafluorobutyl)]-carboxamide] | 195 |  |

| Structure (SMILES) | metabolised at 0.5 h [1] [%] | metabolised at 1 h [1] [%] | metabolised at 2 h [1] [%] | metabolised at 3 h [1] [%] | response vs control in vivo at 30 mg/kg [2] [%] | activity at 2 µM [3] [%] |
| --- | --- | --- | --- | --- | --- | --- |
| CC1(C)CN(c2ncc(C(=O)N(CC(F)(F)C(F)(F)C(F)(F)F)c3cccc(C(F)(F)F)c3)c(N)n2)C(=O)N1 [Example 2, 4-Amino-2-(4,4-dimethylimidazolidin-2-on-1-yl)pyrimidine-5-N-(2,2,3,3,4,4,4-heptafluorobutyl)-N-[(3-trifluoromethyl)phenyl]carboxamide hydrochloride] | < 2 | < 2 | < 2 | < 2 | 245 |  |
